Inhibition and IC50 data for 23 compounds are collected here from US20250092066A1, “SUBSTITUTED BICYCLIC HETEROCYCLES AS MALT-1 INHIBITORS” (AURIGENE ONCOLOGY LIMITED, priority 2022, published 2025).

The assay has as its target MALT-1 (Isoform1) (Homo sapiens (Human), UniProt Q9UDY8). The assay is described as follows: Biochemical fluorescent assay of MALT-1 (Isoform1) enzyme inhibition. The settings on record: recombinant MALT-1 (Isoform1); for inhibition at 1 µM: compound at 1 μM, read-out: Percent Inhibition (@ 1 μM); for IC50: 50 μM AC-LRSR-MAC substrate, 240 min. How it is done: The potency of compounds to inhibit MALT-1 (Isoform1) enzyme was tested in a Fluorescent assay using recombinant MALT-1 (Isoform1, aa-840) generated in-house. The assay buffer was 50 mM HEPES (pH 7.5), 100 mM NaCl, 10 mM DTT, 1 mM EDTA, 0.9 M sodium citrate, 0.01% CHAPS. 1.5 nM of MALT-1 enzyme was incubated with various concentrations of test compounds ([…]) (1% DMSO) in the presence of buffer for 30 minutes at 30° C. The protease reaction was initiated by adding 50 μM of AC-LRSR-MAC (Peptide International, USA) substrate and incubated for 240 min. After 240 min incubation, fluorescence emission of the samples at 460 nm was measured at an excitation of 355 nm. The percent inhibition was calculated using the following formula: […]. IC50 values were determined by fitting the dose-response data to sigmoidal curve fitting equation using Graph pad prism software VS.

Chain of MALT-1 (Isoform1) (Q9UDY8 whole entry, canonical isoform): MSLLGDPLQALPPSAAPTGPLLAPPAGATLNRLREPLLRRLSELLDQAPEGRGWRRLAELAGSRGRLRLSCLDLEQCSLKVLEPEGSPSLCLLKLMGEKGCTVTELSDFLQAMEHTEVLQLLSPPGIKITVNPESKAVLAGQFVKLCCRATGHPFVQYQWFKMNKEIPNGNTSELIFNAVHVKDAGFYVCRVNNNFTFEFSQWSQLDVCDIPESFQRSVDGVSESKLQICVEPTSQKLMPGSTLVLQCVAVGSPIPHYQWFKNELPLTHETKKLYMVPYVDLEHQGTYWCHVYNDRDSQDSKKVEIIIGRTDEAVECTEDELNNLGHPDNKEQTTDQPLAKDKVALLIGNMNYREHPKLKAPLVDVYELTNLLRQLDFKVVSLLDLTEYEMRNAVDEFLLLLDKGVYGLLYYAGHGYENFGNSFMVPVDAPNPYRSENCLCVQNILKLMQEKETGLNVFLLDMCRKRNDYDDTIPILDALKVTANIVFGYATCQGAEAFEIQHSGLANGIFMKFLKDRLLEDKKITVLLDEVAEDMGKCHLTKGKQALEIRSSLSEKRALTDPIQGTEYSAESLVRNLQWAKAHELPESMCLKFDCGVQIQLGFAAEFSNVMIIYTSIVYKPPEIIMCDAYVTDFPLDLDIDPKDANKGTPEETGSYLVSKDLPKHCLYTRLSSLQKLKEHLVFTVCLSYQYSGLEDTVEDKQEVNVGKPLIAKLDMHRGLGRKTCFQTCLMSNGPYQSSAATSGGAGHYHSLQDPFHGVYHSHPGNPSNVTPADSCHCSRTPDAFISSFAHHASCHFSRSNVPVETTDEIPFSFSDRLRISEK

What is called inhibition is the relative decrease from the control value, in per cent. Usually IC50 stands for the concentration needed to halve the response being measured. Turning to `COCc1c(NC(=O)Nc2cc(F)c3nc(C)nn3c2)cnc2cc(Cl)nn12` [Example 22], the inhibition at 1 µM came to 62% and the IC50 is above 250 nM.
Take `Cc1nc2c(F)cc(NC(=O)Nc3cnc4cc(Cl)nn4c3C3(C(F)(F)F)CC3)cn2n1` [Example 23]: the inhibition at 1 µM stood at 98% and the concentration for half-maximal inhibition (IC50) was above 250 nM.
As to `CO[C@@H](C)c1c(NC(=O)Nc2cc(F)c3nc(C)nn3c2)cnc2cc(F)nn12` [Example 24], the inhibition at 1 µM is 80% and the half-inhibitory concentration (IC50) was 51 to 250 nM.
Consider `CO[C@@H](C)c1c(NC(=O)Nc2cc(F)c3nc(C)nn3c2)cnc2cc(Br)nn12` [Example 25], for which the inhibition at 1 µM came out at 95% and the IC50 was below 50 nM.
`CO[C@@H](C)c1c(NC(=O)Nc2cc(F)c3nc(C)nn3c2)cnc2cc(OC(F)F)nn12` [Example 26]: the inhibition at 1 µM is 71% and the IC50 is above 250 nM.
Consider `CO[C@@H](C)c1c(NC(=O)Nc2cc(F)c3ncnn3c2)cnc2cc(C(F)(F)F)nn12` [Example 27], for which the inhibition at 1 µM came out at 87% and the half-maximal inhibitory concentration (IC50) fell in the range of 51 to 250 nM.
With `CO[C@@H](C)c1c(NC(=O)Nc2cc(F)c3ncnn3c2)cnc2cc(C)nn12` [Example 28], the inhibition at 1 µM is 84% and the concentration for half-maximal inhibition (IC50) is above 250 nM.
For `CO[C@@H](C)c1c(NC(=O)Nc2cc(F)c3nc(CN(C)C)nn3c2)cnc2cc(Cl)nn12` [Example 29], the inhibition at 1 µM turned out to be 83% and the IC50 fell in the range of 51 to 250 nM.
Turning to `CO[C@@H](C)c1c(NC(=O)Nc2cc(Cl)c3nc(Cl)nn3c2)cnc2cc(Cl)nn12` [Example 30], the inhibition at 1 µM stood at 96% and the IC50 was below 50 nM.
With `COC(C)c1c(NC(=O)Nc2cc(Cl)c3ncnn3c2)cnc(C)c1Br` (stereo not drawn) [Example 34b, 1-(5-bromo-4-(1-methoxyethyl)-6-methylpyridin-3-yl)-3-(8-chloro-[1,2,4]triazolo[1,5-a]pyridin-6-yl)urea], the inhibition at 1 µM is 33%.
For `COC(C)c1c(NC(=O)Nc2cc(F)c3nc(C)nn3c2)cnc(C)c1Br` (stereo not drawn) [Example 36], the inhibition at 1 µM was 69% and the IC50 was above 250 nM.
As for `COC(C)c1c(NC(=O)Nc2cc(F)c3nc(C)nn3c2)cnc(C)c1Cl` (stereo not drawn) [Example 37], the inhibition at 1 µM is 48% and the half-maximal inhibitory concentration (IC50) is above 250 nM.
As for `Cc1nc2c(C3CC3)c(NC(=O)Nc3cc(Cl)c4ncnn4c3)cnc2s1` [Example 38, 1-(8-chloro-[1,2,4]triazolo[1,5-a]pyridin-6-yl)-3-(7-cyclopropyl-2-methylthiazolo[5,4b]pyridin-6-yl)urea], the inhibition at 1 µM worked out at 62% and the IC50 is above 250 nM.
With `COC(C)c1c(NC(=O)Nc2cc(F)c3nc(C)nn3c2)cnc2sc(C)nc12` (stereo not drawn) [Example 39, 1-(8-fluoro-2-methyl-[1,2,4]triazolo[1,5-a]pyridin-6-yl)-3-(7-(1-methoxyethyl)-2-methylthiazolo[5,4-b]pyridin-6-yl)urea], the inhibition at 1 µM was found to be 77% and the IC50 was above 250 nM.
`CO[C@@H](C)c1c(NC(=O)Nc2cc(Cl)c3nccn3c2)cnc2cc(Cl)nn12` [Example 40]: the inhibition at 1 µM was found to be 96% and the 50% inhibitory concentration (IC50) was 51 to 250 nM.
On to `CO[C@@H](C)c1c(NC(=O)Nc2cc(F)c3nc(C)cn3c2)cnc2cc(Cl)nn12` [Example 41], for which the inhibition at 1 µM is 69% and the IC50 was above 250 nM.
As for `CO[C@@H](C)c1c(NC(=O)Nc2cc(F)c3nc(C)c(C)n3c2)cnc2cc(Cl)nn12` [Example 42], the inhibition at 1 µM is 79% and the IC50 was in the range of 51 to 250 nM.
With `CO[C@@H](C)c1c(NC(=O)Nc2cc(F)c3nccn3c2)cnc2cc(Cl)nn12` [Example 43], the inhibition at 1 µM turned out to be 86% and the half-inhibitory concentration (IC50) lay within 51 to 250 nM.
Taken in the same sequence, the figures for `CO[C@@H](C)c1c(NC(=O)Nc2cc(F)c3ncc(C)n3c2)cnc2cc(Cl)nn12` [Example 44] were 90% and 51 to 250 nM.
Regarding `CO[C@@H](C)c1c(NC(=O)Nc2cc(F)c3ncnn3c2)cnc2cc(C(F)F)nn12` [Example 45], the inhibition at 1 µM stood at 78% and the IC50 is 51 to 250 nM.
Taken in the same sequence, the figures for `CO[C@@H](C)c1c(NC(=O)Nc2cc(F)c3nc(C)nn3c2)cnc2cc(C3CC3)nn12` [Example 46] were 40% and below 50 nM.
Take `CO[C@@H](C)c1c(NC(=O)Nc2cc(F)c3nc(C)nn3c2)cnc2cc(C#N)nn12` [Example 47]: the inhibition at 1 µM came out at 54% and the concentration for half-maximal inhibition (IC50) was below 50 nM.
With `CO[C@@H](C)c1c(NC(=O)Nc2cc(F)c3nc(C(=O)N4CCCC4)nn3c2)cnc2cc(Cl)nn12` [Example 48], the inhibition at 1 µM was determined as 86% and the concentration for half-maximal inhibition (IC50) was 51 to 250 nM.
